According to patent US7855292B2, “Sulfonamide compounds” (Janssen Pharmaceutica NV, priority 2004, dated 2010):

What was measured:
CCK-1 receptor = biological target: T1, CCK-1 receptor (Homo sapiens, UniProt P32238); test: CCK1 binding assay ([125I]-BH-CCK-8S displacement, CHO-K1 membranes); conditions: membranes of CHO-K1 cells stably transfected with the CCK-1 receptor, 20 pM [125I]-BH-CCK-8S, 0.3 μM PD-134,308 present, 60 min at 21±3° C.; for Ki: read-out: CCK1 pKi (converted)
T1 construct: expressed in transfected cells; host or cells: CHO-K1
T1 sequence (P32238 1-428): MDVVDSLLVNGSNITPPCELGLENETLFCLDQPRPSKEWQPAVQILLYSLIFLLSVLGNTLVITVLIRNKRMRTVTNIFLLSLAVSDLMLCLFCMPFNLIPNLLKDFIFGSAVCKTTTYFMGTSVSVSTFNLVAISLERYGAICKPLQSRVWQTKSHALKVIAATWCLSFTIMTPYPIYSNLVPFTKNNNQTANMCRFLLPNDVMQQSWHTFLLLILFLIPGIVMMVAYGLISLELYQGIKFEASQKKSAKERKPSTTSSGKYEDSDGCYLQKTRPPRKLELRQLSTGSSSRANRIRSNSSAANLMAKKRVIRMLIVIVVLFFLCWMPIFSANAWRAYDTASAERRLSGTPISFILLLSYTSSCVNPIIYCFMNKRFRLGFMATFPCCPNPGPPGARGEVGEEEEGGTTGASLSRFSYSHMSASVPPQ
Experimental: 1. CCK1 Assay Development and Data Generation
CHO-K1 cells that had undergone stable transfection with the CCK-1 receptor were grown in DMEM supplemented with L-glutamine (2 mM), penicillin (50 units/mL) and streptomycin (50 μg/mL). Cells were cultured under continuous G418 selection (2 mM) and were harvested using a rubber cell scraper. CHO-K1 cells were sub-cultured a maximum of ten times before being reseeded from the original stocks.
Membranes were prepared from the stably transfected CHO-K1 cells. Frozen cell pellets (−40° C.) were thawed in 14 mL of buffer A (10 mM HEPES, 130 mM NaCl, 4.7 mM KCl, 5 mM MgCl, 1 mM EGTA and 15.4 mg/100 mL bacitracin at pH 7.2), adapted from Harper et al. (Br. J. Pharmacol. 1996, 118:1717-1726). The thawed pellets were homogenized using a Polytron PT-10 (7×1 s). The homogenates were centrifuged for 5 min at 1500 rpm (600×g), and the resulting pellets were discarded. The supernatants were re-centrifuged in order to collect the receptor-membrane pellets (25 min 15,000 rpm; 39,800×g), which were re-suspended in buffer A.
All assays were conducted in 96-well plates (GF/B millipore filter plates) using buffer A, with 0.3 μM PD-134,308, for the dilutions. The CCK-2 receptor ligand was included to eliminate the contribution of this receptor subtype to the binding. For the optimal cell number determination experiments 20 pM [^125I]-BH-CCK-8S (50 μL […] solution) was incubated with a range of cell concentrations ([…] to 12.5×10^5 cells/well) in a total volume of 150 μL. Total binding of [^125I]-BH-CCK-8S was determined in the presence of 15 μL of buffer A. Non-specific binding of [^125I]-BH-CCK-8S was determined in the presence of 15 μL of 100 μM 2-naphthalenesulphonyl L-aspartyl-(2-phenethyl)amide (2-NAP: see R. A. Hull et al. Br. J. Pharmacol. 1993, 108:734-740), a CCK-1 receptor selective antagonist that is structurally unrelated to the radioligand [^125I]-BH-CCK-8S. The assay preparation was incubated for 1 h at 21±3° C., and then the assay was terminated upon rapid filtration of the preparation under reduced pressure. The loaded filters were washed three times using undiluted PBS ([…]), and then the residues were transferred to 5 mL scintillation tubes. Bound radioactivity was determined using a gamma counter (count time=1 min). […] To validate the radioligand concentration and incubation time for the assay, saturation and kinetic binding studies were also conducted (see M. F. Morton, The Pharmacological Characterization of Cholecystokinin Receptors in the Human Gastrointestinal Tract. PhD Thesis, University of London, 2000). […] The assay was then terminated according to the procedure outlined above.
(§1) 3. Data Analysis for CCK1 and CCK2 Binding Assays
The pKi values were determined using the equation of Y.-C. Cheng and W. H. Prusoff (Biochem. Pharmacol., 1973, 22(23):3099-3108):
(§2) [formula] To circumvent problems associated with computer-assisted data analysis of compounds with low affinity, the data obtained in the current study were weighted according to a method described by Morton. In brief, 100% and 0% specific binding were defined independently using total binding and binding obtained in the presence of a high concentration of the reference antagonist, 2-NAP.

CCK2 receptor = biological target: T2, CCK2 receptor (Homo sapiens, UniProt P32239); test: CCK2 binding assay ([125I]-BH-CCK-8S displacement, HEKZFP membranes); conditions: membranes of doxycycline-induced HEKZFP cells; 20 pM [125I]-BH-CCK-8S; 60 min at 21±3° C.; read-out: CCK2 pKi (converted)
T2 construct: analyzed for ZFP expression as well as CCK2R induction upon addition of doxycycline to the culture medium; endogenous in cells
T2 sequence (P32239 1-447): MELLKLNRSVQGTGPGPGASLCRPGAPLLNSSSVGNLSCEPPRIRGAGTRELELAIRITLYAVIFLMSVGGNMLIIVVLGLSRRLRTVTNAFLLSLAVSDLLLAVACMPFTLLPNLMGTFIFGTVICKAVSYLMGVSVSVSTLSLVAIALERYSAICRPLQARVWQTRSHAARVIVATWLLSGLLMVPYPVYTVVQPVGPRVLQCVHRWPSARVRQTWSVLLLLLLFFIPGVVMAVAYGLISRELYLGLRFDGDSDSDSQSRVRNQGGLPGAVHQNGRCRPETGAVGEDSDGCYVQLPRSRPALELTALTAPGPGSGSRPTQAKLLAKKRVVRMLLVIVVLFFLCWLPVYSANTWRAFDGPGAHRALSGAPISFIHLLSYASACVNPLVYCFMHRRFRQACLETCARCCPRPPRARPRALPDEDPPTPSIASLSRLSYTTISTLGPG
Experimental: 2. CCK2 Assay Development and Data Generation
Zinc Finger Proteins (ZFP) specific for the CCK2R gene were identified by Sangamo Biosciences. The ZFP domain was fused with the herpes simplex virus VP16 activation domain, and the fusion protein was subsequently cloned into the pcDNA3 mammalian expression vector (Invitrogen, San Diego, Calif.). […] After 2 weeks of selection in culture medium containing […] Zeocin (Invitrogen), sixty drug-resistant stable clones were isolated and analyzed for ZFP expression as well as CCK2R induction upon addition of doxycycline to the culture medium.
HEKZFP cells were grown in DMEM supplemented with L-glutamine (2 mM), penicillin (50 units/mL) and streptomycin (50 μg/mL) and 10% FBS (v/v).
Membranes were prepared from the HEKZFP cells after induction. […] The thawed pellets were homogenized using a Polytron PT-10 (7×1 s). The homogenates were centrifuged for 5 min at 1500 rpm (600×g), and the resulting pellets were discarded. The supernatants were re-centrifuged in order to collect the receptor-membrane pellets (25 min 15,000 rpm; 39,800×g), which were re-suspended in buffer A.
The assay preparation was incubated for 1 h at 21±3° C., and then the assay was terminated by rapid filtration of the preparation under reduced pressure. The loaded filters were washed three times using undiluted PBS (100 μL), and then 100 μL of scintillation fluid was added to the filter plate. Bound radioactivity was determined using a Topcount (Packard BioScience, Meriden, Conn.) with a count time of 1 min. […] To validate the radioligand concentration and incubation time for the assay, saturation and kinetic binding studies were also conducted (see M. F. Morton, The Pharmacological Characterization of Cholecystokinin Receptors in the Human Gastrointestinal Tract. PhD Thesis, University of London, 2000). […] The assay was then terminated according to the procedure outlined above.
as §1
The pKi values were determined using the equation of Y.-C.
as §2

| Ki (CCK-1 receptor) | Ki (CCK2 receptor) | CCK1 pKi (CCK-1 receptor) | Structure (SMILES) |
| --- | --- | --- | --- |
| 200 nM | 251 nM | – | O=C(NC(C(=O)O)C(O)c1ccc(Cl)c(Cl)c1)c1ccc(Cl)cc1NS(=O)(=O)c1cccc2nsnc12 (mixture of isomers) [Example 19, 2-[2-(Benzo[1,2,5]thiadiazole-4-sulfonylamino)-4-chloro-benzoylamino]-3-(3,4-dichloro-phenyl)-3-hydroxy-propionic acid] |
| 126 nM | 398 nM | – | CC(CNC(=O)c1ccc(Cl)cc1NS(=O)(=O)c1cccc2nsnc12)c1ccc(Cl)cc1 (racemic) [Example 1, (±)-2-(Benzo[1,2,5]thiadiazole-4-sulfonylamino)-4-chloro-N-[2-(4-chloro-phenyl)-propyl]-benzamide] |
| 20 nM | 7940 nM | – | CC(CNC(=O)c1ccc(Cl)cc1NS(=O)(=O)c1ccc(F)cc1F)c1ccc(Cl)c(Cl)c1 (racemic) [Example 10, (±)-4-Chloro-N-[2-(3,4-dichloro-phenyl)-propyl]-2-(2,4-difluorobenzenesulfonylamino)-benzamide] |
| 1260 nM | 63.1 nM | – | Cc1ccc(C(=O)NC(CO)Cc2ccc(Cl)cc2)c(NS(=O)(=O)c2cccc3nsnc23)c1 (racemic) [Example 12, (±)-2-(Benzo[1,2,5]thiadiazole-4-sulfonylamino)-N-[2-(4-chloro-phenyl)-1-hydroxymethyl-ethyl]-4-methyl-benzamide] |
| 63.1 nM | 631 nM | – | CC(CNC(=O)c1cc(Cl)ccc1NS(=O)(=O)c1cccc2nsnc12)c1ccc(Cl)c(Cl)c1 (racemic) [Example 16, (±)-2-(Benzo[1,2,5]thiadiazole-4-sulfonylamino)-5-chloro-N-[2-(3,4-dichloro-phenyl)-propyl]-benzamide] |
| 316 nM | 1580 nM | – | COC(=O)C(NC(=O)c1ccc(Cl)cc1NS(=O)(=O)c1cccc2nccnc12)C(=O)c1ccc(Cl)c(Cl)c1 (racemic) [Example 18, (±)-2-[4-Chloro-2-(quinoxaline-5-sulfonylamino)-benzoylamino]-3-(3,4-dichloro-phenyl)-3-oxo-propionic acid methyl ester] |
| 501 nM | 100 nM | – | O=C(NC(CO)Cc1ccc(Cl)cc1)c1ccc(Cl)cc1NS(=O)(=O)c1cccc2nsnc12 (racemic) [Example 52, (±)-2-(Benzo[1,2,5]thiadiazole-4-sulfonylamino)-4-chloro-N-[2-(4-chloro-phenyl)-1-hydroxymethyl-ethyl]-benzamide] |
| 126 nM | 2510 nM | – | CC(Cc1ccc(Cl)cc1)NC(=O)c1ccc(Br)cc1NS(=O)(=O)c1cccc2nsnc12 (racemic) [Example 53, (±)-2-(Benzo[1,2,5]thiadiazole-4-sulfonylamino)-4-bromo-N-[2-(4-chloro-phenyl)-1-methyl-ethyl]-benzamide] |
| 794 nM | 316 nM | – | Cc1ccc(C(=O)NCC(C)c2ccc(Cl)cc2)c(NS(=O)(=O)c2cccc3nsnc23)c1 (racemic) [Example 54, (±)-2-(Benzo[1,2,5]thiadiazole-4-sulfonylamino)-N-[2-(4-chloro-phenyl)-propyl]-4-methyl-benzamide] |
| 12.6 nM | 501 nM | – | CC(CNC(=O)c1ccc(Cl)cc1NS(=O)(=O)c1cccc2nsnc12)c1ccc(Cl)c(Cl)c1 (racemic) [Example 57, (±)-2-(Benzo[1,2,5]thiadiazole-4-sulfonylamino)-4-chloro-N-[2-(3,4-dichloro-phenyl)-propyl]-benzamide] |
| 31.6 nM | 501 nM | – | CC(CNC(=O)c1cc(Cl)c(Cl)cc1NS(=O)(=O)c1cccc2nsnc12)c1ccc(Cl)c(Cl)c1 (racemic) [Example 58, (±)-2-(Benzo[1,2,5]thiadiazole-4-sulfonylamino)-4,5-dichloro-N-[2-(3,4-dichloro-phenyl)-propyl]-benzamide] |
| – | – | 7.1 | O=C(N[C@H](Cc1ccc(Cl)c(Cl)c1)C(=O)O)c1ccc(Cl)cc1NS(=O)(=O)c1cccc2nsnc12 [Example 118, (R)-2-[2-(Benzo[1,2,5]thiadiazole-4-sulfonylamino)-4-chloro-benzoylamino]-3-(3,4-dichloro-phenyl)-propionic acid] |
